Measured values taken from patent US20210259954A1, “CILIA-TARGETING NANOPARTICLES” (Chapman University, priority 2019, published 2021).

Tests used:
[1] = tested on: Tie2Cre⋅Pkd2^flox/flox mice; assay: Endothelial-specific Pkd2 mouse model, 8-week treatment (Example 2); format: in vivo
Description: Mouse models. All mouse experiments were performed by two operators who were blinded to the experimental conditions. All animal procedures were performed according to the University of California Irvine and Chapman University Animal Care and Use Committee Guidelines. One-week-old Tie2Cre⋅Pkd2^WT/WT (with Cre activation; control group), Tie2Cre⋅Pkd2^flox/flox (without Cre activation; control group) or Tie2Cre⋅Pkd2^flox/flox (with Cre activation; experimental group) mice were intraperitoneally injected with 250 μg of tamoxifen in a 50-μL volume daily for five consecutive days. A limited number of IFT88 mice was also used as a cilia-less model in this study. […] On the other hand, fenoldopam-alone (1 μg/kg/min) was perfused for 30 minutes every 72 hours for 8 weeks. […] Five minutes after the CT-Fe2O3-NP injection, a 1.35-T AlNiCo cylindrical magnet (VWR International) was placed at the posterior and anterior regions of the mouse for 10 minutes daily.
Mouse blood pressure measurements. […] Blood pressure was measured twice daily for the duration of the study after the initial three days of acclimating each mouse to the cuff. All measurements were performed by operators in a double-blind. At the end of the 12-week treatment, the haematology results including the BUN and plasma nitrate/nitrite measurements were examined. BUN assays were conducted using an Arbor Assays calorimetric Detection Kit. Plasma nitrate/nitrite concentrations were quantified using a Cayman nitrate/nitrite assay kit. All steps were performed according to the manufacturers' instructions.
H&E and Masson's trichrome staining. Sections of the zebrafish (whole body) and major mouse organs, including the hearts, kidneys, livers, spleens and lungs, were collected and subjected to H&E staining for zebrafish cysts and histopathology by fixation in 10% formalin. Then, the tissues were dehydrated in buffered formalin, ethanol, and xylene. Finally, the tissues were embedded in liquid paraffin, sectioned (4 μm), and stained with H&E for histological examinations. The pathology slices were observed and imaged using a KEYENCE-BZ-X710 microscope. Mouse heart sections were stained with Masson's trichrome to detect fibrosis using a Masson's Trichrome Stain Kit (Polysciences).

[2] = tested on: Tie2Cre⋅Pkd2^flox/flox mice; assay: Endothelia-specific Pkd2 knockout hypertensive mouse model, 8-week treatment (Example 1); format: in vivo
Description: One-week-old Tie2Cre⋅Pkd2^WT/WT (with cre activation; control group) or Tie2Cre⋅Pkd2^flox/flox (without cre activation; control group), and Tie2Cre⋅Pkd2^flox/flox (with cre activation; experimental group) mice were injected intra-peritoneally with 5 μg/μL tamoxifen every day for five consecutive days. […] The overall process for the preparation of the final nano-formulation for the animal studies included the following steps. The lyophilized antibody conjugated and drug-loaded CT-DAu-NPs or CT-PLGA-NP powders were first brought to the room temperature from a storage at −50° C. […] The formulations were mixed by vortex for 2 minutes followed by filtration of 0.2 μm. […] The mice were treated every 72 hours with different NPs for 8 weeks. Blood pressure from four-week-old mice was taken with the non-invasive tail-cuff method using the CODA system (Kent Scientific). Blood pressure was measured twice daily for the duration of the study after the initial three days of acclimating each mouse to the cuff. At the end of the 12 weeks of treatment, the hematology parameters, including the blood urea nitrogen (BUN) and plasma nitrate/nitrite measurements, were examined. BUN assays were conducted using a calorimetric kit (Arbor Assays). Plasma nitrate/nitrite concentrations were quantified using a nitrate/nitrite assay kit (Cayman). All steps were followed according to the manufacturer's instructions. […] Then, the tissues were dehydrated using buffered ethanol, and xylene. Finally, the tissues were embedded in wax, sectioned (4 μm, Microtome, HM-3555, Thermo Scientific) and were subsequently stained with standard hematoxylin and eosin (H&E). The pathology slices were observed and imaged using a KEYENCE-BZ-X710 microscope. Mouse heart sections were stained with Masson's Trichrome to detect fibrosis using a Masson's Trichrome Stain Kit (Polysciences, Inc.).

primary cilia = assay: In vitro cilia length, acetylated-α-tubulin immunofluorescence (Example 1); format: cell-based; settings: after 16 hours, vs corresponding controls
Description: Immunocytochemistry. For the in vitro cilia length measurements, cells were grown on the Formvar® polymer, as mentioned above. Primary cilia consisting of acetylated microtubule structures were measured by direct immunofluorescence with acetylated-α-tubulin staining with 0, 2, 4, 8, 16, 24 and 32 hours of incubation with different concentrations (0.1-5 μg/mL) of CT-DAu-NPs or CT-PLGA-NPs. Likewise, materials without fenoldopam loading were used as corresponding controls for the CTNDDSs (cCT-DAu-NPs and cCT-PLGA-NPs) and also fenoldopam alone used. The cells were rinsed with sodium cacodylate buffer, fixed with 3% glutaraldehyde in 0.2 M sodium cacodylate buffer for 10 minutes, and permeabilized with 1% Triton-X in sodium cacodylate for 5 min. Acetylated-α-tubulin (1:10,000 dilution, Sigma) and the secondary antibodies were also diluted in 10% FBS to decrease the background florescence; FITC fluorescence secondary antibody (1:1000; Pierce, Inc.) was used. The cells were then washed three times for 5 minutes each with cacodylate buffer and mounted with DAPI (Vector laboratories). Confocal microscopic images were obtained using an inverted Nikon Eclipse Ti confocal microscope.

[3] = tested on: Tie2Cre⋅IFT88^flox/flox mice; assay: Working heart perfusion system, hearts of treated IFT88 mice; format: in vivo, mouse

SMILES: Oc1ccc(C2CNCCc3c2cc(O)c(O)c3Cl)cc1 (centres unmarked) [Fenoldopam, fenoldopam]
- acute blood pressure and heart rate ([1]; 60 minutes after infusion): immediate decrease in blood pressure, followed by reflex tachycardia
- blood pressure (SBP, MAP) ([1]; Pkd2 mice, every 72 hours for 8 weeks): did not result in an overall decrease in systemic blood pressure
- mortality ([1]; Pkd2 mice, repeated infusions for 8 weeks): 40%
- duration of blood pressure decrease ([1]; after infusion): approximately one
- cilia length ([1]; continuous infusion for 5 days): increased the cilia length
- cilia length in aorta and heart ([2]; 24 or 72 hours after treatment): increased by CTNDDS but not fenoldopam
- blood urea nitrogen (BUN) ([2]; Pkd2 mice): could not be corrected
- plasma nitrate/nitrite ([2]; Pkd2 mice): could not be corrected
- acute blood pressure and heart rate ([2]; Pkd2 mice, 10-minute infusion): significantly decreased blood pressure followed by reflex tachycardia
- blood pressure (SBP, MAP) ([2]; hypertensive Pkd2 mice, every 3 days for 8 weeks): no long-term effect
- cilia length (primary cilia): significantly increased cilia length
- CO, cardiac output ([3]; diltiazem stress): 1857 ± 137 µL/min
- EDPVR, end-diastolic pressure volume relation ([3]; diltiazem stress): 0.13 ± 0.01 mmHg/μL
- EF, ejection fraction ([3]; diltiazem stress): 51.6 ± 1.7%
- ESPVR, end-systolic pressure volume relation ([3]; diltiazem stress): 2.1 ± 0.1 mmHg/μL
- HR, heart rate ([3]; diltiazem stress): 104 ± 20 beat/min
- LV EDP, end-diastolic pressure ([3]; diltiazem stress): 5.1 ± 0.1 mmHg
- LV EDV, end-diastolic volume ([3]; diltiazem stress): 40.0 ± 0.1 µL
- LV ESP, end-systolic pressure ([3]; diltiazem stress): 30.2 ± 0.1 mmHg
- LV ESV, end-systolic volume ([3]; diltiazem stress): 19.4 ± 0.7 µL
- LV Pmax, systolic pressure ([3]; diltiazem stress): 40.2 ± 0.1 mmHg
- SV, stroke volume ([3]; diltiazem stress): 20.6 ± 0.7 µL
- SW, stroke work ([3]; diltiazem stress): 725 ± 20 mmHg · μL
- dP/dtmax, maximum rate of LV pressure rise ([3]; diltiazem stress): 3619 ± 111 mmHg/s
- dP/dtmin, maximum rate of LV pressure fall ([3]; diltiazem stress): −1372 ± 330 mmHg/s
- CO, cardiac output ([3]; epinephrine stress): 7590 ± 176 µL/min
- EDPVR, end-diastolic pressure volume relation ([3]; epinephrine stress): 0.13 ± 0.01 mmHg/μL
- EF, ejection fraction ([3]; epinephrine stress): 78.2 ± 2.2%
- ESPVR, end-systolic pressure volume relation ([3]; epinephrine stress): 10.0 ± 1.1 mmHg/μL
- HR, heart rate ([3]; epinephrine stress): 241 ± 22 beat/min
- LV EDP, end-diastolic pressure ([3]; epinephrine stress): 5.3 ± 0.2 mmHg
- LV EDV, end-diastolic volume ([3]; epinephrine stress): 40.2 ± 0.1 µL
- LV ESP, end-systolic pressure ([3]; epinephrine stress): 64.5 ± 0.2 mmHg
- LV ESV, end-systolic volume ([3]; epinephrine stress): 8.7 ± 0.9 µL
- LV Pmax, systolic pressure ([3]; epinephrine stress): 56.0 ± 0.3 mmHg
- SV, stroke volume ([3]; epinephrine stress): 31.4 ± 0.8 µL
- SW, stroke work ([3]; epinephrine stress): 2538 ± 16 mmHg · μL
- dP/dtmax, maximum rate of LV pressure rise ([3]; epinephrine stress): 17206 ± 578 mmHg/s
- dP/dtmin, maximum rate of LV pressure fall ([3]; epinephrine stress): -3180 ± 120 mmHg/s
- CO, cardiac output ([3]; vehicle): 3780 ± 437 µL/min
- EDPVR, end-diastolic pressure volume relation ([3]; vehicle): 0.13 ± 0.01 mmHg/μL
- EF, ejection fraction ([3]; vehicle): 65.5 ± 3.5%
- ESPVR, end-systolic pressure volume relation ([3]; vehicle): 5.4 ± 0.7 mmHg/μL
- HR, heart rate ([3]; vehicle): 144 ± 32 beat/min
- LV EDP, end-diastolic pressure ([3]; vehicle): 5.1 ± 0.1 mmHg
- LV EDV, end-diastolic volume ([3]; vehicle): 40.1 ± 0.1 µL
- LV ESP, end-systolic pressure ([3]; vehicle): 54.3 ± 1.0 mmHg
- LV ESV, end-systolic volume ([3]; vehicle): 13.8 ± 1.4 µL
- LV Pmax, systolic pressure ([3]; vehicle): 72.4 ± 1.3 mmHg
- SV, stroke volume ([3]; vehicle): 26.3 ± 1.4 µL
- SW, stroke work ([3]; vehicle): 1767 ± 56 mmHg · μL
- dP/dtmax, maximum rate of LV pressure rise ([3]; vehicle): 7819 ± 140 mmHg/s
- dP/dtmin, maximum rate of LV pressure fall ([3]; vehicle): −1658 ± 190 mmHg/s
